# Test results: the kinase profiling compilation of Christmann-Franck et al. (2016)
# Several values for one entry are separate records, joined by “and”; a condition that tells them apart may be missing. Equal entries are not always repeated.
# Key:
# Test in all cases: radiometric filter-binding kinase assay, Kinase HotSpot
# Details in all cases: compound 0.5 µM; ATP 10 µM
# MARK3 (human) = MARK3 (human) (UniProt P27448)
# DCLK2 (human) = DCLK2 (human) (UniProt Q8N568)
# OXSR1 (human) = OXSR1 (human) (UniProt O95747)
# GSG2 (human) = GSG2 (human) (UniProt Q8TF76)
# TAOK2 (human) = TAOK2 (human) (UniProt Q9UL54)
# Chain of TAOK2 (human) (Q9UL54 whole entry, looked up): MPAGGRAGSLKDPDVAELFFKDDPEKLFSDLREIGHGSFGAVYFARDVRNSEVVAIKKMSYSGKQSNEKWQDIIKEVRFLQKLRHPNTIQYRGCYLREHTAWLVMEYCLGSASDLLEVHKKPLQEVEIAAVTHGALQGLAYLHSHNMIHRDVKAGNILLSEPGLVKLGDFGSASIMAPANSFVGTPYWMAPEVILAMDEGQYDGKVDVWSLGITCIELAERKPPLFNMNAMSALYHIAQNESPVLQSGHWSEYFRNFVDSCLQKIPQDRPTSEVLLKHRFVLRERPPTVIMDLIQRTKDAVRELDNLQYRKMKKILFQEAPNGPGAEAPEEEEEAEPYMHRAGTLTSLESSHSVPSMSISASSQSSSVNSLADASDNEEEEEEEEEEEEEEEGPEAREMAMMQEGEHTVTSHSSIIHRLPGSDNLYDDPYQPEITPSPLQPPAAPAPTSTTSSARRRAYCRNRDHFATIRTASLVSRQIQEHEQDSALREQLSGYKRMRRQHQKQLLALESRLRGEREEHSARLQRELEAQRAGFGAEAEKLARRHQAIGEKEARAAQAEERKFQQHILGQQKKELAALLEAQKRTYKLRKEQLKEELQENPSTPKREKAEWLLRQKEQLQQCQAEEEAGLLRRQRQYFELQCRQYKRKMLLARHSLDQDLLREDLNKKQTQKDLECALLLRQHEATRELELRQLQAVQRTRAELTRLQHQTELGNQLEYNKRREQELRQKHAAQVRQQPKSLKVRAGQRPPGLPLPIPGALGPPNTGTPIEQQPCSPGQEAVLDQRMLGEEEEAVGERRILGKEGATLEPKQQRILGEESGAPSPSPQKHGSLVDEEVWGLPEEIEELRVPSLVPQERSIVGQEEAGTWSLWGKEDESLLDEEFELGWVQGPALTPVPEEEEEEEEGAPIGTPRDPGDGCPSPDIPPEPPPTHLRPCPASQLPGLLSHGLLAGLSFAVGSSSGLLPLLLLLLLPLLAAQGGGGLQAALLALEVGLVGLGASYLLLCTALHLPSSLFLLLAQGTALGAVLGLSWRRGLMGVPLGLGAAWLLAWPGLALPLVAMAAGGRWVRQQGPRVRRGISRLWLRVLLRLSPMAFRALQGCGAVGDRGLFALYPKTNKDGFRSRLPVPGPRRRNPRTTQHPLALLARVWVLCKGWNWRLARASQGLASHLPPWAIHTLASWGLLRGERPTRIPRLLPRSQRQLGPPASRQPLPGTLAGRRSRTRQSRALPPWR
# RAF1 (human) = RAF1 (human) (UniProt P04049)
# Chain of RAF1 (human) (P04049 whole entry, looked up): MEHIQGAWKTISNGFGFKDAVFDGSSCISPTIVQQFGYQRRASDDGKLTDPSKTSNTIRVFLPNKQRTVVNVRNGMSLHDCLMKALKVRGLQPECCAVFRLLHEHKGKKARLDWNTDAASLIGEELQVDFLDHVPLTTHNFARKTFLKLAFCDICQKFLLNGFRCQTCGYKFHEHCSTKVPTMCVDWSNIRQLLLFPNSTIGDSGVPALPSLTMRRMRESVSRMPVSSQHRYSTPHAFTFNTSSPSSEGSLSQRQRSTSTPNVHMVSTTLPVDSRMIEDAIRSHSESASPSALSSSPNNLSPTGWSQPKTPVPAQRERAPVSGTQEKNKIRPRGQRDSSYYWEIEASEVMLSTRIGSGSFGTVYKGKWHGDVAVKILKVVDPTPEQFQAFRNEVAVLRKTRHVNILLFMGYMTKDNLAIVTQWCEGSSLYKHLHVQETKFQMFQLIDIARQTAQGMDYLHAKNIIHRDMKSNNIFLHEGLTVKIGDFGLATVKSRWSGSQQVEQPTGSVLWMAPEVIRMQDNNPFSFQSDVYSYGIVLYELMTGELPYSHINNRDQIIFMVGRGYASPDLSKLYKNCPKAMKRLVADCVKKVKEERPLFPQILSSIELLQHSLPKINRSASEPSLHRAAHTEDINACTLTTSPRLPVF
# IRAK1 (human) = IRAK1 (human) (UniProt P51617)
# BRSK1 (human) = BRSK1 (human) (UniProt Q8TDC3)
# SYK (human) = SYK (human) (UniProt P43405)
# MAP3K7 TAB1 (human) = MAP3K7 TAB1 (human) (UniProt O43318+Q15750)
# ZAP70 (human) = ZAP70 (human) (UniProt P43403)
# PRKCI (human) = PRKCI (human) (UniProt P41743)
# AXL (human) = AXL (human) (UniProt P30530)
# Chain of AXL (human) (P30530 whole entry, looked up): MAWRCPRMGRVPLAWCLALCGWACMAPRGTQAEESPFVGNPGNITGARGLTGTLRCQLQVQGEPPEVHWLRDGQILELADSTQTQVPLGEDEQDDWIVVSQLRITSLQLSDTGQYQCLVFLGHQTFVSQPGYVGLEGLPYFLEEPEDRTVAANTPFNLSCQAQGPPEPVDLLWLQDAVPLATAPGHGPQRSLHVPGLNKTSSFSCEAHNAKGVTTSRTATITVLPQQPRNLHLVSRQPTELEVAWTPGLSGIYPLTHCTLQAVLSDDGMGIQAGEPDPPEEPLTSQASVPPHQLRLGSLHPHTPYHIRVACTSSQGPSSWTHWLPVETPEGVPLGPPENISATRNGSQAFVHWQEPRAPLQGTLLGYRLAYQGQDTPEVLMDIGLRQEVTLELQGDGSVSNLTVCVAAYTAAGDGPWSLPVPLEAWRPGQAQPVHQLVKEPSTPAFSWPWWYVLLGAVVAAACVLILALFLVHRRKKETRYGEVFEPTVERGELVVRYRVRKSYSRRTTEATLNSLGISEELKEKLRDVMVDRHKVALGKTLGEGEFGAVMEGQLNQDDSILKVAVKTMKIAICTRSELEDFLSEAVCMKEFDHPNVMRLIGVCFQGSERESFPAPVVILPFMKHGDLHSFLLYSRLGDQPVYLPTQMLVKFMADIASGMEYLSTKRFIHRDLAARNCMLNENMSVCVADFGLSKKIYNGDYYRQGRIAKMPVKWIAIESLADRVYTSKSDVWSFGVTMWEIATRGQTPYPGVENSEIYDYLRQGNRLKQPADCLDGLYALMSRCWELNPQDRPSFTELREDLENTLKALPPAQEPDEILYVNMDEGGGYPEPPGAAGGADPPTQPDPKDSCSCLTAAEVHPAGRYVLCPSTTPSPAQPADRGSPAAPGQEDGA
# BMX (human) = BMX (human) (UniProt P51813)
# STK17A (human) = STK17A (human) (UniProt Q9UEE5)
# PASK (human) = PASK (human) (UniProt Q96RG2)
# ADRBK1 (human) = ADRBK1 (human) (UniProt P25098)
# Chain of ADRBK1 (human) (P25098 whole entry, looked up): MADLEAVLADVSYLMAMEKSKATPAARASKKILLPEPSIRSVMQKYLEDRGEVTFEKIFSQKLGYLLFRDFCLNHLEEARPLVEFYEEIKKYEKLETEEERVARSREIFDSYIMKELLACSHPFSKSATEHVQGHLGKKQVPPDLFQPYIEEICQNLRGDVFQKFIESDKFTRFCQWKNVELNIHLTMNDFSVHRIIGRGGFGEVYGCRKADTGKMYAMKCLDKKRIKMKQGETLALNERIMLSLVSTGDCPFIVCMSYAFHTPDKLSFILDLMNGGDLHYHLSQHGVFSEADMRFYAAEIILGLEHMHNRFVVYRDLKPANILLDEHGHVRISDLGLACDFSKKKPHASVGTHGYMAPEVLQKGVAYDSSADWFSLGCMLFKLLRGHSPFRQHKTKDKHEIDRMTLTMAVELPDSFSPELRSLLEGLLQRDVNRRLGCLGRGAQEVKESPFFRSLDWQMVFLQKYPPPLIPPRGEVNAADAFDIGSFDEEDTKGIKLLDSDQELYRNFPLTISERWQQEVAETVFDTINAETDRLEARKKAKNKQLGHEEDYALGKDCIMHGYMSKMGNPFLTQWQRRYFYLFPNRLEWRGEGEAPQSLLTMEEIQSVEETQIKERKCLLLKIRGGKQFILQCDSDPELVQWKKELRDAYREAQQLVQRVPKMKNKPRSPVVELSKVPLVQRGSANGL
# PRKCD (human) = PRKCD (human) (UniProt Q05655)
# MAP4K4 (human) = MAP4K4 (human) (UniProt O95819)
# MARK2 (human) = MARK2 (human) (UniProt Q7KZI7)
# STK16 (human) = STK16 (human) (UniProt O75716)
# NEK11 (human) = NEK11 (human) (UniProt Q8NG66)
# Chain of NEK11 (human) (Q8NG66 whole entry, looked up): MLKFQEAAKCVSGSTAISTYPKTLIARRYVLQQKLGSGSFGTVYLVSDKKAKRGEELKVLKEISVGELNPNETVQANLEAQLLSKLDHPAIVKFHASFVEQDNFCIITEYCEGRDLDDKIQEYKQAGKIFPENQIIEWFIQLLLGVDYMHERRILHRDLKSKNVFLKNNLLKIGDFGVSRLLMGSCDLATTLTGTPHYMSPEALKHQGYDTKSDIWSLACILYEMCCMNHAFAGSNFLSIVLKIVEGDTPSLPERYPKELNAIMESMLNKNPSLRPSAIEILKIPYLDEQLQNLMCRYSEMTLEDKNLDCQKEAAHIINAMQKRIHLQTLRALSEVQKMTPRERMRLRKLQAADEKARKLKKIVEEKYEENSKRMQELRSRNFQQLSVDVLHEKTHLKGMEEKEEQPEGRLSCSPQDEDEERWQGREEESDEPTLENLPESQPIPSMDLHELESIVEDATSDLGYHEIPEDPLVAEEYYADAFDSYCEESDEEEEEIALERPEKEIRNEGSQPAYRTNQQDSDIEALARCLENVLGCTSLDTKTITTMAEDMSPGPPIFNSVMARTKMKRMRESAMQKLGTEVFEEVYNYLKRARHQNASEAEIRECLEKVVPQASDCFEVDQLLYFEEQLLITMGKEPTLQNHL
# PRKG1 (human) = PRKG1 (human) (UniProt Q13976)
# TSSK1B (human) = TSSK1B (human) (UniProt Q9BXA7)
# Chain of TSSK1B (human) (Q9BXA7 whole entry, looked up): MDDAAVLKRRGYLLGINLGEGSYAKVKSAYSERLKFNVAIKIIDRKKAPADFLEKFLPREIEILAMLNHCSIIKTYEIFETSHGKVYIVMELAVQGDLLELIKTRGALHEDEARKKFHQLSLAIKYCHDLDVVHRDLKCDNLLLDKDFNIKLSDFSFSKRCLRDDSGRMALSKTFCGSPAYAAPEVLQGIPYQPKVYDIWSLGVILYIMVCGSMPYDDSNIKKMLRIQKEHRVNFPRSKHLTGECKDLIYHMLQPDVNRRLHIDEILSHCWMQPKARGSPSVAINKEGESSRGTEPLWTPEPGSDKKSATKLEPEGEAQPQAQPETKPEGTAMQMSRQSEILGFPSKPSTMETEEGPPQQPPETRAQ
# EPHA7 (human) = EPHA7 (human) (UniProt Q15375)
# TSSK2 (human) = TSSK2 (human) (UniProt Q96PF2)
# Chain of TSSK2 (human) (Q96PF2 whole entry, looked up): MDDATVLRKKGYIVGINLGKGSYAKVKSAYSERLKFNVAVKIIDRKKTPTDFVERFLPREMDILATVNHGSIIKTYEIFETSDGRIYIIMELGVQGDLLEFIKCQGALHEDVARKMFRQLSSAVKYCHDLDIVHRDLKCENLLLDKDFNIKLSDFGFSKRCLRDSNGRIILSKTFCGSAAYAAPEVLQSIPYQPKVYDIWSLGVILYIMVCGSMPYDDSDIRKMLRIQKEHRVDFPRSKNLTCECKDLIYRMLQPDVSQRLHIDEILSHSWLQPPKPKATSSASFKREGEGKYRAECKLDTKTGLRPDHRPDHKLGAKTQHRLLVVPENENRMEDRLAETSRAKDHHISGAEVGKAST
# CSNK1D (human) = CSNK1D (human) (UniProt P48730)
# MAP3K2 (human) = MAP3K2 (human) (UniProt Q9Y2U5)
# EPHA1 (human) = EPHA1 (human) (UniProt P21709)
# FYN (human) = FYN (human) (UniProt P06241)
# MAP2K2 (human) = MAP2K2 (human) (UniProt P36507)
# EGFR (human) = EGFR (human) (UniProt P00533)
# NEK4 (human) = NEK4 (human) (UniProt P51957)
# STK33 (human) = STK33 (human) (UniProt Q9BYT3)
# DMPK (human) = DMPK (human) (UniProt Q09013)
# GRK6 (human) = GRK6 (human) (UniProt P43250)
# PIM1 (human) = PIM1 (human) (UniProt P11309)
# CAMKK2 (human) = CAMKK2 (human) (UniProt Q96RR4)
# PRKCH (human) = PRKCH (human) (UniProt P24723)
# LYN (human) = LYN (human) (UniProt P07948)
# CDK2 CCNE1 (human) = CDK2 CCNE1 (human) (UniProt P24941+P24864)
# CDK6 CCND1 (human) = CDK6 CCND1 (human) (UniProt Q00534+P24385)
smiles,measurement,setting,value
CC(C)[C@H](CO)Nc1nc(Nc2cc(N)cc(Cl)c2)c2ncn(C(C)C)c2n1,residual activity,MARK3 (human),85.2%
same,residual activity,DCLK2 (human),105%
same,residual activity,OXSR1 (human),100%
same,residual activity,GSG2 (human),99.9%
same,residual activity,TAOK2 (human),82.2%
same,residual activity,RAF1 (human),113%
same,residual activity,IRAK1 (human),97.1%
same,residual activity,BRSK1 (human),93.1%
same,residual activity,SYK (human),81.1%
same,residual activity,MAP3K7 TAB1 (human),51.3%
same,residual activity,ZAP70 (human),102%
same,residual activity,PRKCI (human),89.6%
same,residual activity,AXL (human),93.1%
same,residual activity,BMX (human),81.9%
same,residual activity,STK17A (human),96.3%
same,residual activity,PASK (human),106%
same,residual activity,ADRBK1 (human),83%
same,residual activity,PRKCD (human),87.6%
same,residual activity,MAP4K4 (human),86.1%
same,residual activity,MARK2 (human),74.1%
same,residual activity,STK16 (human),74%
same,residual activity,NEK11 (human),84.2%
same,residual activity,PRKG1 (human),102% and 104%
same,residual activity,TSSK1B (human),91.3%
same,residual activity,EPHA7 (human),80.2%
same,residual activity,TSSK2 (human),102%
same,residual activity,CSNK1D (human),65.7%
same,residual activity,MAP3K2 (human),83.1%
same,residual activity,EPHA1 (human),76.9%
same,residual activity,FYN (human),18.9%
same,residual activity,MAP2K2 (human),87.5%
same,residual activity,EGFR (human),93.9%
same,residual activity,NEK4 (human),80.2%
same,residual activity,STK33 (human),56.2%
same,residual activity,DMPK (human),99.7%
same,residual activity,GRK6 (human),72.1%
same,residual activity,PIM1 (human),98%
same,residual activity,CAMKK2 (human),33.2%
same,residual activity,PRKCH (human),99.4%
O=C1NC(=O)C(c2c[nH]c3ccccc23)=C1c1c[nH]c2ccccc12,residual activity,MARK3 (human),98.5%
same,residual activity,DCLK2 (human),89.3%
same,residual activity,OXSR1 (human),86.3%
same,residual activity,GSG2 (human),84.7%
same,residual activity,TAOK2 (human),102%
same,residual activity,RAF1 (human),122%
same,residual activity,IRAK1 (human),89.6%
same,residual activity,BRSK1 (human),84.4%
same,residual activity,SYK (human),103%
same,residual activity,MAP3K7 TAB1 (human),97%
same,residual activity,LYN (human),102% and 104%
same,residual activity,CDK2 CCNE1 (human),71.4%
same,residual activity,PRKCI (human),96.9%
same,residual activity,AXL (human),103%
same,residual activity,BMX (human),100%
same,residual activity,STK17A (human),92.2%
same,residual activity,PASK (human),90.8%
same,residual activity,ADRBK1 (human),98.4%
same,residual activity,PRKCD (human),55.5%
same,residual activity,MAP4K4 (human),58.5%
same,residual activity,MARK2 (human),88.9%
same,residual activity,STK16 (human),94.2%
same,residual activity,NEK11 (human),108%
same,residual activity,PRKG1 (human),76.8% and 82.4%
same,residual activity,TSSK1B (human),106%
same,residual activity,EPHA7 (human),94.3%
same,residual activity,TSSK2 (human),110%
same,residual activity,CSNK1D (human),95.7%
same,residual activity,MAP3K2 (human),107%
same,residual activity,CDK6 CCND1 (human),88.7%
same,residual activity,EPHA1 (human),92.1%
same,residual activity,FYN (human),101%
same,residual activity,MAP2K2 (human),82.7%
same,residual activity,NEK4 (human),96.4%
same,residual activity,STK33 (human),97.7%
same,residual activity,DMPK (human),97.3%
same,residual activity,GRK6 (human),101%
same,residual activity,PIM1 (human),17.2%
same,residual activity,CAMKK2 (human),92.8%
same,residual activity,PRKCH (human),42%
O=C1Cc2c([nH]c3ccc(Br)cc23)-c2ccccc2N1,residual activity,MARK3 (human),76.8%
same,residual activity,DCLK2 (human),94.6%
same,residual activity,OXSR1 (human),107%
same,residual activity,GSG2 (human),89.1%
same,residual activity,TAOK2 (human),94%
same,residual activity,RAF1 (human),91.5%
same,residual activity,IRAK1 (human),98.6%
same,residual activity,BRSK1 (human),60.5%
same,residual activity,SYK (human),81.5%
same,residual activity,MAP3K7 TAB1 (human),84.2%
same,residual activity,ZAP70 (human),93.6%
same,residual activity,LYN (human),67.2% and 75.4%
same,residual activity,CDK2 CCNE1 (human),51.9%
same,residual activity,PRKCI (human),89.1%
same,residual activity,AXL (human),101%
same,residual activity,BMX (human),99.6%
same,residual activity,STK17A (human),102%
same,residual activity,PASK (human),98%
same,residual activity,ADRBK1 (human),103%
same,residual activity,PRKCD (human),92.7%
same,residual activity,MAP4K4 (human),6.61%
same,residual activity,MARK2 (human),74.3%
same,residual activity,STK16 (human),98.9%
same,residual activity,NEK11 (human),107%
same,residual activity,PRKG1 (human),93% and 95.9%
same,residual activity,TSSK1B (human),80.4%
same,residual activity,EPHA7 (human),101%
same,residual activity,TSSK2 (human),99.3%
same,residual activity,CSNK1D (human),104%
same,residual activity,MAP3K2 (human),94.2%
same,residual activity,CDK6 CCND1 (human),83.4%
same,residual activity,EPHA1 (human),100%
same,residual activity,FYN (human),73.4%
same,residual activity,MAP2K2 (human),116%
same,residual activity,NEK4 (human),98.9%
same,residual activity,STK33 (human),103%
same,residual activity,DMPK (human),110%
same,residual activity,GRK6 (human),105%
same,residual activity,PIM1 (human),96.8%
same,residual activity,CAMKK2 (human),77.8%
same,residual activity,PRKCH (human),95.3%
Cn1cnc2cc3c(Nc4cccc(Br)c4)ncnc3cc21,residual activity,MARK3 (human),104%
same,residual activity,DCLK2 (human),92.9%
same,residual activity,OXSR1 (human),94.6%
same,residual activity,GSG2 (human),89.4%
same,residual activity,TAOK2 (human),103%
same,residual activity,RAF1 (human),98.6%
same,residual activity,IRAK1 (human),80.5%
same,residual activity,BRSK1 (human),81.6%
same,residual activity,SYK (human),98.5%
same,residual activity,MAP3K7 TAB1 (human),98.6%
same,residual activity,ZAP70 (human),110%
same,residual activity,LYN (human),52.4% and 75.8%
same,residual activity,CDK2 CCNE1 (human),78.2%
same,residual activity,PRKCI (human),100%
same,residual activity,AXL (human),101%
same,residual activity,BMX (human),96.6%
same,residual activity,STK17A (human),82.5%
same,residual activity,PASK (human),89.8%
same,residual activity,ADRBK1 (human),100%
same,residual activity,PRKCD (human),91.8%
same,residual activity,MAP4K4 (human),52.1%
same,residual activity,MARK2 (human),96.6%
same,residual activity,STK16 (human),96.3%
same,residual activity,NEK11 (human),101%
same,residual activity,PRKG1 (human),97.8% and 98%
same,residual activity,TSSK1B (human),104%
same,residual activity,EPHA7 (human),72%
same,residual activity,TSSK2 (human),111%
same,residual activity,CSNK1D (human),93.9%
same,residual activity,MAP3K2 (human),97.6%
same,residual activity,CDK6 CCND1 (human),107%
same,residual activity,EPHA1 (human),84.4%
same,residual activity,FYN (human),85.9%
same,residual activity,MAP2K2 (human),101%
same,residual activity,NEK4 (human),96.8%
same,residual activity,STK33 (human),99.3%
same,residual activity,DMPK (human),98.4%
same,residual activity,GRK6 (human),107%
same,residual activity,PIM1 (human),73.8%
same,residual activity,CAMKK2 (human),99.6%
same,residual activity,PRKCH (human),81.2%
COc1ccc(CNC(=O)Nc2ncc([N+](=O)[O-])s2)cc1,residual activity,MARK3 (human),105%
same,residual activity,DCLK2 (human),99.2%
same,residual activity,OXSR1 (human),95.9%
same,residual activity,GSG2 (human),90%
same,residual activity,TAOK2 (human),98.5%
same,residual activity,RAF1 (human),94%
same,residual activity,IRAK1 (human),108%
same,residual activity,BRSK1 (human),102%
same,residual activity,SYK (human),98.6%
same,residual activity,MAP3K7 TAB1 (human),99.3%
same,residual activity,ZAP70 (human),102%
same,residual activity,LYN (human),91.4% and 97.7%
same,residual activity,CDK2 CCNE1 (human),97.6%
same,residual activity,PRKCI (human),94.4%
same,residual activity,AXL (human),92%
same,residual activity,BMX (human),90.8%
same,residual activity,STK17A (human),91.6%
same,residual activity,PASK (human),106%
same,residual activity,ADRBK1 (human),96.4%
same,residual activity,PRKCD (human),100%
same,residual activity,MAP4K4 (human),98.8%
same,residual activity,MARK2 (human),106%
same,residual activity,STK16 (human),99.9%
same,residual activity,NEK11 (human),104%
same,residual activity,PRKG1 (human),95.9% and 97.3%
same,residual activity,TSSK1B (human),106%
same,residual activity,EPHA7 (human),96.6%
same,residual activity,TSSK2 (human),105%
same,residual activity,MAP3K2 (human),94.1%
same,residual activity,CDK6 CCND1 (human),98.6%
same,residual activity,EPHA1 (human),107%
same,residual activity,FYN (human),102%
same,residual activity,MAP2K2 (human),73.5%
same,residual activity,NEK4 (human),91%
same,residual activity,STK33 (human),100%
same,residual activity,DMPK (human),101%
same,residual activity,GRK6 (human),99.6%
same,residual activity,PIM1 (human),104%
same,residual activity,CAMKK2 (human),92.7%
same,residual activity,PRKCH (human),64.1%
